Tests used:
Type in all cases: cell-based, human
J-TCR-M1 T cells = assay: Secondary screen for nonspecific T cell activation (T cells alone, IL-2); details: 2.5×10^4 T cells alone, no tumor; PMA 2 μg/ml
Procedure: FIG. 4 is a graph showing IL-2 expression from the secondary screen for nonspecific T cell activation. Bars indicate the incubation of 2.5×10^4 T cells alone with the indicated compounds. The concentration of compounds used in this assay are; 17-AAG 10 μg/ml, OBAA 25 μg/ml, aphidicolin 4 μg/ml, flunarizine 8 μg/ml, dantrolene 2 μg/ml, glyburide 4 μg/ml, and PMA 2 μg/ml.
Secondary screens were carried out on the 8 primary hits, to further test performance robustness, specificity, and certain functional properties. Initially, for any previously-described compound, extensive literature searches must be performed to look for all relevant known bioactivities, especially towards melanocytic cells or T cells. […] Testing for non-specific T cell stimulation will identify false positives, and compounds failing this test will not be further evaluated in any other secondary screens. […]
The protocol for evaluation of the cytokine IL-2 was performed using a the BD OptEAI kit, human IL-2 ELISA set from BD Biosciences (San Diego, Calif.) following the manufacturer's recommendations. The absorbance 450 nm was read in a BioRad 3550 plate reader. […] IL-2 levels for experimental samples (pg/ml) were calculated from the standard curve.

MU89 melanoma cells = assay: Tumor cell/T cell co-culture IL-2 ELISA (Melan-A/MART-1 specific TCR Jurkat line J-TCR-M1 as responder); details: for Fold increase (IL-2 relative to untreated controls), hits from pilot screen: about 10 μM, 72 hours treatment, then 24 hours co-culture
Text: The assay relies on the use of an antigen-specific responder T cell line. […] The chosen TCR reacts specifically to a Melan-A/MART-1 decapeptide (26[…]35) presented by HLA-A2, with appropriate triggering of T cell activation. We then used a lentiviral vector system for transduction of this specific TCR into the J.RT3-T3.5 T cell line, a Jurkat cell derivative which fails to express endogenous surface TCR through a mutation in its beta chain.
We evaluated several candidate melanoma cell lines for the ability to stimulate the J-TCR-M1 cell line. Levels of Melan-A/MART-1 (determined by intracellular staining and flow cytometry) and corresponding levels of induced IL-2 (determined by coculture with J-TCR-M1 and IL-2 ELISA) were tested for different melanoma cell lines.
The 480 compounds were tested in six parallel 96 well plates. The first two columns (16 wells) of each plate were used for standards (8 wells), untreated controls (4 wells), and positive controls (4 wells). The other ten columns (80 wells) were used for testing compounds in separate wells. A100 μl aliquot containing 5×10^4 MU89 cells was added to wells that contained 0.1 μl of each test drug diluted in 50 μl of RPMI media. The plates were incubated with drug for 72 hours at 37° C. in a humidified incubator with 5% CO2. After 72 hours, each well received 2.5×10^4J-TCR-M1 cells in 50 μl medium, and then incubated a further 24 hours. At the conclusion of the 24 hour co-culture period, each plate was centrifuged to pellet the cells and 100 μl supernatant fluid was collected from each well and plated in a parallel 96 well flat bottom well for IL-2 ELISA assay.
Melanoma cells were treated with hits from the primary screen for three days prior to counting and plating for the coculture assay (cells were washed and resuspended in fresh medium that no longer contained the treatment agents during the co-culture). A100 μl volume of 5×10^5 cells/ml tumor cells were mixed with 50 μl of […] T cells in a 96-well V-bottom plate and incubated overnight (16-24 hours). Plates were centrifuged to pellet the cells and 100 μl of supernatant fluid was removed from each well for cytokine assay. To assess antigen-specific T cell responses, a final concentration of 3.33 μg/ml Melan-A/MART-1 peptide (26[…]35 (A27L from wild type)) was added to the co-culture.
The protocol for evaluation of the cytokine IL-2 was performed using a the BD OptEAI kit, human IL-2 ELISA set from BD Biosciences (San Diego, Calif.) following the manufacturer's recommendations. The absorbance 450 nm was read in a BioRad 3550 plate reader. A standard curve using known concentrations of IL-2 (from 500 to 8 pg/ml) was included in each ELISA plate. IL-2 levels for experimental samples (pg/ml) were calculated from the standard curve.
100 μl of 5×10^5 tumor cells/ml were mixed with 50 μl of T cells (at 5×10^5 cells/ml) in a 96-well V-bottom plate and incubated overnight (16-24 hours). Plates were centrifuged to pellet the cells and 120 μl of supernatant fluid was removed from each well for cytokine assay. To assess antigen-specific T cell responses, 3.33 μg/ml Melan-A/MART-1 peptide was added to the co-culture.
The protocols for evaluation of either IL-2 or IFN-gamma were similar, following the manufacturer's recommendations. A standard curve using known concentrations of each cytokine was included in each ELISA experiment. ELISA plates were coated with capture antibody and then washed with 1×PBS 0.5% Tween-20. Wells were blocked with 1×PBS 1% FBS for 1 hour and rewashed.

[1] = system: MU89 MART::EGFP cell line; assay: Melan-A/MART-1 promoter-driven EGFP reporter, kinetics by flow cytometry; details: MU89 MART::EGFP (FIG. 11)
Procedure: FIG. 11 is a set of four graphs showing the kinetics of Melan-A/MART-1 increase. […] The same number of cells per well were plated in each well of a 24 well plate and drug was added on day zero. Each day cells were collected and assayed for that time point. Control untreated cells are shown for comparison. The data are from one representative experiment.
A kinetic analysis was performed to determine the effect of Hsp90 inhibition on Melan-A/MART-1 promoter activity over time. […] Reporter activity increases steadily for the first 72 hours of Hsp90 inhibition, and then plateaus. The need for continued presence of Hsp90 inhibitors in order for them to be effective (i.e. whether the drug can be removed after short exposure, or whether it must it be continually present) was assessed. […] To achieve full signal enhancement, it is desirable to retain the drug for at least 48 hours, after which the effect remains constant or slightly decreases.
The generation and application of EGFP reporter cells has been previously described. Briefly, a 1200 base pair human genomic DNA segment encompassing the Melan-A/MART-1 promoter was used to generate a construct driving expression of the EGFP reporter gene. Stable transfectants with this construct were generated in the low-antigen cell line A375 and the high-antigen line MM96L+ and MU89. The EGFP expression response patterns of these cells to IFN-beta and MAP kinase inhibitors recapitulates the antigen up-regulation of endogenous Melan-A/MART-1 induced by these agents.
Intracellular staining and flow cytometric analyses of cytoplasmic Melan-A/MART-1, and gp100 expression were performed as described previously. Cells were fixed with 1% formaldehyde, permeabilized with 0.1% saponin, stained with monoclonal antibodies to melanocyte antigens. Antibodies were obtained with specificity for: Melan-A/MART-1 from Vector Labs (Burlingame, Calif.); gp100/HMB45 from DakoCytomation (Carpinteria, Calif.) and then visualized with goat anti-mouse FITC-conjugated secondary antibody from Invitrogen (Frederick, Md.). The level of EGFP was determined by flow cytometry of unfixed cells washed and resuspended in 1×PBS. Surface staining of MHC Class I was carried out using the antibody W6/32 on cells harvested with Cell Stripper from MediaTech Inc. (Manassas, Va.) and carried out on ice.

melanomas and gliomas = assay: Intracellular staining for Melan-A/MART-1 and gp100, melanomas and gliomas exposed to hits (Table 10); details: in most cell lines; three days (Table 10)
Procedure: FIG. 7 is a series of graphs showing intracellular staining and flow histograms used to generate data for Table 10. All cells were stained with an antibody to gp100. Thin line represents untreated cells, bold line represents cells treated for three days with 17-AAG (1 μg/ml). Numbers represent geometric mean of flow histograms.
A further orthogonal secondary screen is the measurement of Melan-A/MART-1 and gp100 in additional melanoma cell lines and gliomas in response to the primary hit candidates. […] If the compounds of interest increase antigen levels in multiple melanoma cell lines and two gliomas, the effects of the compounds are clearly not limited to a single melanoma cell type.
As for the primary screen, 17-AAG and aphidicolin, had the largest impact on EGFP stimulation, inducing 3-fold and 5-fold increases respectively. Four additional compounds: damnacanthal, flunarizine, OBAA, and dantrolene stimulated EGFP more than 2-fold. We then tested the ability of the hit compounds to induce antigen increases in a more diverse set of tumors including melanomas and gliomas. […]
(§1) Cells were fixed with 1% formaldehyde, permeabilized with 0.1% saponin, stained with monoclonal antibodies to melanocyte antigens. […] The level of EGFP was determined by flow cytometry of unfixed cells that were washed and resuspended in 1×PBS.

[2] = system: Melan-A/MART-1 promoter EGFP reporter cell line; assay: Melan-A/MART-1 promoter-driven EGFP reporter cell line, secondary screen of hits (FIG. 6); details: over a dose range (FIG. 6)
Text: FIG. 6 is a series of graphs showing EGFP detection of in cells treated with the indicated hits showing ability to upregulate a cell line containing a Melan-A/MART-1 promoter-driven EGFP reporter. Note that the x-axes (drug concentrations) and y-axes (EGFP fluorescent measurement) cover different ranges to best indicate the activities of individual compounds. Data from a single determination, representative of at least three confirmatory experiments, is shown.
The EGFP reporter driven by the Melan-A/MART-1 promoter represents one such orthogonal assay because it evaluates directly the effect of the compounds on Melan-A/MART-1 promoter activity independent of Melan-A/MART-1 protein expression. Compounds passing the other secondary screens, but failing this one, may affect antigen presentation by other mechanisms such as increasing the efficiency of antigen processing, enhancing MHC Class I levels, or by stabilizing the antigen/MHC complex.
As for the primary screen, 17-AAG and aphidicolin, had the largest impact on EGFP stimulation, inducing 3-fold and 5-fold increases respectively. […]
as §1

SMILES: CCCCCCCCCCCCCC(=O)O[C@@H]1[C@@H](C)[C@@]2(O)[C@@H](C=C(CO)C[C@]3(O)C(=O)C(C)=C[C@@H]23)[C@@H]2C(C)(C)[C@]12OC(C)=O [PMA, phorbol-12-myristate-13 acetate]
- IL-2 expression of T cells incubated alone with compound (nonspecific T cell activation) (J-TCR-M1 T cells): caused T cells stimulation in the absence of tumor
- Fold increase (IL-2 relative to untreated controls), hits from pilot screen (MU89 melanoma cells): 1.9 fold

SMILES: C=CCNC1=C2C[C@@H](C)C[C@H](OC)[C@H](O)[C@@H](C)/C=C(\C)[C@H](OC(N)=O)[C@@H](OC)/C=C\C=C(/C)C(=O)NC(=CC1=O)C2=O [17-AAG, 17-allylaminogeldanamycin]
- Time at which the fluorescent reporter signal is significantly enhanced (as early as) [1]: 2 days
- Protein increase (Melan-A/MART-1, gp100 intracellular staining) (melanomas and gliomas): inducing high levels of protein increases at low concentrations
- Outcome in the primary co-culture IL-2 screen (hit or not) (MU89 melanoma cells; ICCB Known Bioactives Library, 10 μM): identified as a hit
- Fold increase (IL-2 relative to untreated controls), hits from pilot screen (MU89 melanoma cells): 7.7 fold
- IL-2 stimulation in repeat of the tumor T cell co-culture IL-2 ELISA (MU89 melanoma cells; hits re-tested over a wider dose range (FIG. 5)): about 7 fold
- EGFP stimulation (Melan-A/MART-1 promoter reporter) [2]: 3 fold
